In a melting point compilation (Tetko et al.; mined from patent text by program, amines drawn as free bases though some values may be those of a salt) one finds melting point data, which are given here for 86 compounds.

Molecules are shown by their SMILES. Some results are limits rather than exact numbers.

For orientation: melting point means the temperature of the solid-liquid transition. In the case of `CCOC(=O)Nc1ncc(-c2nc3ccccc3c(=O)n2-c2ccccc2OC)s1`, the melting point fell in the range of 263 to 264 °C. `CCC1(C)CCN(c2ccc([N+](=O)[O-])cc2C(=O)c2ccc(Cl)cc2)CC1`: the melting point was 105 °C. Consider `COCOc1ccccc1-c1cc(-c2cccc(C(=O)NC3CCCN(C(=O)OC(C)(C)C)C3)c2)c(C#N)c(NC(=O)c2cccs2)n1` (stereo unspecified), for which the melting point was in the range of 167 to 168 °C. Then `CCn1c2ccccc2c2cc(C(C#N)=C(C#N)c3cc(C(F)(F)F)cc(C(F)(F)F)c3)ccc21`, with 180 to 182 °C. On to `CN(c1cccc2cc(C(N)=S)[nH]c12)S(=O)(=O)c1cccs1`, for which the melting point lay in the range of 239 to 240 °C.

On to `CCCN(C1=C(O)CC(C2CCCC2)(C2CCCC2)OC1=O)c1cccc(N)c1`, for which the melting point fell in the range of 173 to 175 °C. In turn, `O=C(OCn1cc(F)c(=O)n(COC(=O)c2ccccc2)c1=O)c1ccccc1` came in with a melting point of 178 to 180 °C. Regarding `CCCCc1nc(SCC)c(C(=O)O)n1Cc1ccc(C(=O)O)cc1`, the melting point was found to be 168 °C. Turning to `COC(=O)Cc1cc(Br)c(Sc2ccc(OC)c(C(C)C)c2)c(Br)c1`, the melting point lay in the range of 73 to 76 °C.

`COC(=O)c1cc(C(=O)c2ncc3ccc(C(=O)OC(C)(C)C)cn23)ccc1[N+](=O)[O-]` gave a melting point of 170 °C.

With `CCCCCCCCCCCCCCCCCCOC(=O)Cc1cc(C(C)(C)C)c(O)c(C)c1C`, the melting point was in the range of 79 to 81 °C. Compound `Nc1c(F)cncc1F` displayed a melting point of 99 to 101 °C. Next, `Cc1cc(C)c2c(c1)C(Nc1ncnc(N)n1)CCC2` (stereo unspecified): 178 to 180 °C. `CCCn1c(=O)cc(Cl)n(CC#N)c1=O` returned a melting point of 83 to 84 °C.

For the compound `CCOC(=O)c1cn(-c2nccs2)c2nc(N3C[C@@H](NC)[C@H](OC)C3)ccc2c1=O` (relative stereo), the melting point was 73 to 76 °C. Then `COc1ccc(-c2ncc(N(C)CCCCOCC(=O)O)nc2-c2ccc(OC)cc2)cc1`, with 128 to 130 °C; and `COP(=O)(OC)C(O)=Cc1ccc2c(c1)C(=O)Cc1ccccc1O2`, with 118 °C. For `CC(c1ccccc1)N1CCC(n2cnc3ccc(Cl)cc3c2=O)CC1` (stereo unspecified), the melting point was 160 to 162 °C.

With `CC(c1oc2ccccc2c(=O)c1-c1cccc(F)c1)n1nc(-c2ccc(S(C)(=O)=O)cc2)c2c(N)ncnc21` (stereo unspecified), the melting point is 259 to 262 °C. Next, `CC(C)CC12CCC3C4CCC(=O)C=C4CCC3C1CCC2O` (stereo unspecified): 124 to 126 °C; `CC(C)(CCCCCCNS(=O)(=O)c1ccc(Cl)cc1)C(=O)O`: 95 to 96 °C. In turn, `Cc1ccc(Sc2c(SCc3ccccc3)cc(C(=O)O)cc2S(N)(=O)=O)cc1` returned a melting point of 250 to 251 °C. As for `O=C(Nc1ccc(Oc2ccnc(NCC3OCCO3)n2)c2ccccc12)c1cc(F)cc(N2CCOCC2)c1`, the melting point is 122 to 124 °C. Then `CC(C)(C)OC(=O)N1CCC(COc2ccc(C=NO)cc2)CC1`, with 140 to 142 °C.

As for `CCCCOc1cc(CCS(N)(=O)=O)n(Cc2ccc(Cl)cc2Cl)n1`, the melting point lay within 134 to 136 °C.

Take `NC(=O)c1ccc2c([N+](=O)[O-])cc3c(c2c1)C(CCl)CN3` (stereo unspecified): the melting point was > 300 °C. Take `CCCCc1nc2c(c(C)c(C)n3nnnc23)n1CC(C)(C)NC(=O)OC(C)(C)C`: the melting point was 179 to 181 °C.

On to `CCCCCCCCCCCCCC=C1CC(CO)(COC(C)=O)OC1=O` (racemic), for which the melting point fell in the range of 58 to 59 °C.

`COc1ccc(CCNC(=O)C(F)(F)F)cc1` displayed a melting point of 74 to 77 °C. With `CCCCc1sc2ccc([N+](=O)[O-])cc2c1C(=O)c1ccc(O)cc1`, the melting point was found to be 147 °C. With `COc1ccc(-c2csc(Nc3ccc4ccccc4c3)n2)cc1OC`, the melting point fell in the range of 221 to 224 °C. As for `CC1N=C(c2ccccc2F)c2cc(I)ccc2NC1=O` (stereo unspecified), the melting point is 211 °C. Compound `O=C(COc1cccc2ccccc12)NC(Cc1ccccc1)C(=O)CSCc1ccco1` (stereo unspecified) came in with a melting point of 104 to 106 °C. Then `O=C(NC1CNC1=O)OCc1ccccc1` (stereo unspecified), with 160 to 161 °C; and `O=C1CCC(N2C(=O)c3cccc(NC(=O)COCc4ccccc4)c3C2=O)C(=O)N1` (stereo unspecified), with 204 to 206 °C; and `Cc1cc(-c2ccc(F)cc2)c(C=CC=O)o1`, with 89 to 90 °C. As for `Cn1c(N)cc(=O)n1-c1ccccc1`, the melting point was in the range of 205 to 215 °C. In turn, `COC(=O)CCc1ccc(NC(=O)C(COC2CCCCO2)NS(=O)(=O)c2ccc(Cl)cc2)cc1` (racemic) showed a melting point of 102 to 107 °C. `CCC1C(C)=NN=C(c2ccccc2)c2ccc(OC)cc21` (stereo unspecified) gave a melting point of 162 to 163 °C. `Cc1cc(OCCN2CCC(n3cnc4cccnc43)CC2)nn1-c1ccc(Cl)c(Cl)c1` showed a melting point of 104 to 107 °C. For the compound `CCSc1cccc(OC(F)(F)F)c1S(=O)(=O)NC(=O)c1noc(C)n1`, the melting point turned out to be 111 °C. For `C=CCC1C(=NO)C2CCC1CC2` (stereo unspecified), the melting point lay in the range of 124 to 125 °C. `CCOC(=O)c1ncc2[nH]c3ccc(C(=O)N4CCCCC4)cc3c2c1C`: the melting point was 212 to 218 °C. Regarding `CC1(C)Oc2ccc(OC(F)(F)F)cc2[C@@H](NC(=O)c2ccc(C(F)(F)F)cc2[N+](=O)[O-])[C@@H]1O`, the melting point was 60 to 65 °C. `O=C(O)CCc1cccc(CNC(=O)C2Cc3ccccc3N2S(=O)(=O)c2ccc(-c3cccc(C(F)(F)F)c3)cc2)c1` (stereo unspecified) displayed a melting point of 135 °C. With `c1ccc2sc3cc4oc5ccccc5sc4cc3oc2c1`, the melting point was found to be 223 °C.

The compound `Oc1nsc(SCc2ccc(Cl)cc2Cl)n1` had a melting point of 134 °C. For the compound `Cc1ccc(N2C(=O)C(O)=C(C(=O)c3ccc(C(C)C)cc3)C2c2ccc(OC3CC3)cc2)nn1` (stereo unspecified), the melting point is 285 to 288 °C. Then `Fc1ccc(-c2cc(Cl)c3sccc3n2)cc1`, with 119 to 121 °C; and `NC(=O)c1cccc(-c2ccnc(C(=O)N(O)Cc3ccccc3)c2)c1`, with 158 to 162 °C. In turn, `COC(=O)c1ccc(OCCCN(C(N)=O)c2ccc(Cl)cc2)cc1` yielded a melting point of 141 to 142 °C. Next, `CNC(=C[N+](=O)[O-])NCCCSc1nc(C)co1`: 92 to 93 °C; `Cc1nc2ccc3ccc(CNc4ccc5c(c4)CN([C@@H](CCC(=O)O)C(=O)N[C@@H](Cc4ccccc4)C(=O)O)C5=O)cc3c2c(=O)[nH]1`: 180 °C. Then `OC1CSC(=S)N1c1ccccn1` (stereo unspecified), with 110 °C; and `COc1cc(OCc2c(C)noc2C)c(C=CC(=O)c2ccc(C(=O)O)cc2)cc1-c1cccs1`, with 213 to 215 °C; and `O=c1[nH]c2ccc(C(F)(F)F)cc2c(-c2cc(Cl)ccc2O)c1NS(=O)(=O)c1ccccc1`, with 262 to 265 °C.

Compound `CS(=O)c1ccc(-c2ccc(-c3ccc(F)cc3)s2)s1` (stereo unspecified) yielded a melting point of 153 to 157 °C. Turning to `OC1CSC(Oc2cc(F)cnc2Cl)C(O)C1O` (stereo unspecified), the melting point is 143 °C. Regarding `CCOC(=O)c1ncn2c1[C@@H]1CCCN1C(=O)c1cc(F)ccc1-2`, the melting point fell in the range of 194 to 195 °C. `O=C(C1COc2ccccc2O1)N1CCNCC1` (stereo unspecified) gave a melting point of 84 to 85 °C. With `CC(=O)NC1CCC(NC(=O)Nc2ccc(C(F)(F)F)cc2)CC1` (stereo unspecified), the melting point was > 400 °C. Next, `COc1c(N2C[C@@H](N)[C@@H](C)C2)c(F)cc2c(=O)c(C(=O)O)cn(C3CC3)c12` (relative stereo): 192 to 194 °C; `Cc1ccc(N2C(=O)C(O)=C(C(=O)c3ccc(C(C)C)cc3)C2c2ccc(C(C)C)cc2)nn1` (stereo unspecified): 271 °C; `O=[N+]([O-])c1ccccc1Oc1ccc(Cl)cc1`: 33 to 35 °C. Turning to `COC(=O)c1cc([N+](=O)[O-])ccc1-c1c(OC)cccc1OC`, the melting point stood at 157 °C. Turning to `Cn1c(=O)c(-c2c(Cl)cccc2Cl)cc2cnc(Nc3ccc(Cl)cc3)nc21`, the melting point lay within 255 to 256 °C. Take `CCCCCCCCCCCCCCCCSCC(CNS(=O)(=O)CCCCl)OC(=O)NC` (stereo unspecified): the melting point was 84.5 to 85.5 °C. The compound `Cc1cc(CCCCCCC(OS(=O)(=O)O)c2nnnn2C)on1` (stereo unspecified) yielded a melting point of 58 to 60 °C. In turn, `COc1cc2c(Nc3ccc(Cl)cc3F)ncnc2cc1OCCN1CCS(=O)(=O)CC1` displayed a melting point of 246 to 249 °C. Take `CNC(=O)Oc1cccc(NC(=O)CC(C)=O)c1`: the melting point was determined as 142 °C. `COP(=O)(Cc1ccc(-c2ccccc2)cc1)OC` returned a melting point of 70 to 71 °C. Compound `COc1ccc(/C=C/c2cc(/C=C/c3ccc4cc[nH]c4c3)n[nH]2)c(OCc2ccccn2)c1` gave a melting point of 107 to 115 °C. Next, `COCCc1nc2c(N)nc3ccccc3c2n1CCCNC(=O)c1cc2ccccc2cn1`: 198 °C; `O=C(O)CSc1ccc([N+](=O)[O-])cc1C(=O)O`: 216 to 217 °C; `CC(=O)SCC(Cc1ccc(F)cc1F)C(=O)Nc1cccc(C(=O)O)c1` (stereo unspecified): 164 to 166 °C. `Cc1c(C(=O)OCc2ccccc2)sc(NC(=O)c2cccnc2)c1C(=O)OC(C)(C)C` had a melting point of 165 to 166 °C. Turning to `CC1(C)SC(c2cc(Br)c(O)c(Br)c2)NC1C(=O)O` (stereo unspecified), the melting point lay in the range of 154 to 155 °C. Then `CCOC(=O)C(NC=O)=C(c1ccc(F)cc1)c1ccc(F)cc1`, with 174 to 176 °C; and `Cc1ccc(-n2nc(C(C)(C)C)cc2NC(=O)Nc2ccc(-c3c(C(N)=O)[nH]c4ccccc34)cc2)cc1`, with > 260 °C. Next, `CCCCCC1(c2ccccc2)CC=CC(=O)O1` (stereo unspecified): 123 to 124 °C; `CCc1c(C(=O)c2cc(C)cc(C)c2)n(COCc2ccccc2)c(=O)[nH]c1=O`: 115 to 116 °C. Compound `CC(CCCc1ccccc1)c1cc2c(cc1O)C1=C(CCCC1=O)C(C)(C)O2` (stereo unspecified) showed a melting point of 186 to 188 °C. The compound `N#Cc1ccn2ccccc12` returned a melting point of 53 to 54 °C. In the case of `CC(=O)N1C(C(=O)O)CSC1c1ccccc1OCCO[N+](=O)[O-]` (stereo unspecified), the melting point was 159 to 162 °C. In turn, `Clc1ncnc2c1CCOc1ccccc1-2` showed a melting point of 114 to 115 °C. Regarding `CC(=O)OC1OCC[C@@H]1NC(=O)[C@H](CC(C)C)NC(=O)OCc1ccccc1` (stereo partly specified), the melting point lay within 158 to 159 °C.
